Key:
[1] = tested on: Primary human subcutaneous adipocytes; experiment: Glucose uptake in human subcutaneous adipocytes, insulin resistant model; format: cell-based
Experimental: As described above, primary human subcutaneous adipocytes were differentiated for two weeks prior to treatment. To induce an insulin resistant state, cells were treated in serum free Dulbecco's Modified Eagle Medium (high glucose) and […] for 24 hours. Cells were simultaneously treated with compounds diluted in DMSO for 24 hours. As described above, after 24 hours, media was exchanged for assay buffer and the compounds were added again but in the presence of approximately 1 nM insulin. Cells were washed and lysed after 2 hours and glucose uptake was measured. […] Statistical changes in glucose uptake were determined by way ANOVA and compared to DMSO.

[2] = tested on: Primary human subcutaneous adipocytes; experiment: Glucose uptake in human subcutaneous adipocytes, insulin sensitive model; format: cell-based
Experimental: Primary human subcutaneous adipocytes (Zen Bio, Research Triangle Park, N.C.) were differentiated for two weeks prior to treatment. Cells were treated with indicated compounds diluted in (dimethyl-sulfoxide) DMSO in serum free medium for 24 hours in triplicate. After 24 hours, media was exchanged for assay buffer and the compounds were added again but in the presence of approximately 1 nM insulin. Glucose uptake was initiated with the addition of a cocktail containing 2-deoxyglucose and ^3H-2-deoxyglucose and allowed to incubate for 2 hours. Cells were washed, lysed and glucose uptake was measured as counts per well. As an assay control, 100 nM of insulin was used during the 2 hours of glucose uptake. […] Statistical changes in glucose uptake were determined by way ANOVA and compared to DMSO.

naïve CD4+ T cells = experiment: Human regulatory T cell differentiation assay; format: cell-based; conditions: 6 days
Experimental: Peripheral blood mononuclear cells (PBMCs) from whole blood donated by health volunteers were separated by Ficoll-Paque gradient centrifugation and naïve CD4^+ T cells were subsequently isolated using magnet beads (EasySep™ Human Naïve CD4^+ T Cell Isolation Kit, Cambridge, Mass.). For regulatory T cell (Treg) differentiation assay, naïve CD4^+ T cells were cultured (1-10×10^4 cells) in CTS OpTmizer medium for 6 days and stimulated with 5 ng/ml TGF-β, 100 U/ml IL-2, and ImmunoCult™ Human […] T Cell Activator; Stemcell #10990) with/without our Compounds. Cell viability was determined using a viability dye (eBioscience Fixable Viability Dye eFluor 780: ThermoFisher 65-0865-14) at 1:500 dilution. The cells were gated for Treg, defined as Live, CD11c^−, CD14^−, CD19^−, CD8^−, CD4^+, CD3^+, CD25^+, FOXP3^+. Percent (%) Tregs were calculated as percentage of CD4^+, CD25^+, FOXP3^+ cells over total CD4^+ T cells. Statistical analysis was performed with GraphPad Prism Software Using One-Way ANOVA.

Mouse myocyte = Mouse myocyte lipolysis assay; format: cell-based
Experimental: Cells were obtained from ATCC and cultured in Dulbecco's Modified Eagle's medium (DMEM) containing 20% fetal bovine serum and 1% penicillin/streptomycin at 37° C. in an incubator with 5% CO2. Once the cells became confluent, they were seeded into a tissue culture treated 96 well plate. The next day, the medium containing DMEM with 2% equine serum was used to start differentiation. Once cells were fully differentiated, they were treated with indicated compounds.

Mouse 3T3-L1 cells = experiment: Mouse adipocyte lipolysis assay; format: cell-based
Experimental: Once the cells became confluent, they were seeded into a tissue culture treated 96 well plate. […] After 14 days of differentiation, cells were treated with compounds of interest. After 24 hours post-treatment, the cell viability was assessed using CellTiter-Glo Luminescent Cell Viability Assay from Promega, and lipolysis was determined using Lipolysis Assay Kit from ZenBio.

Male DIO mice = experiment: In vivo evaluation for glucose disposal and lipidemia in DIO mice (Example 11); conditions: 0.045% in HFD
Experimental: The DIO mice were prepared by feeding male C57BL/6 mice a high fat diet (HFD, Research Diets D12492) from 6-14 weeks of age. DIO mice were housed individually and maintained on the HFD through the duration of study. A twelve-hour light cycle was maintained with room temperature maintained at 22-25° C. All of the mice were acclimated to the facility for 5 days prior to starting the study.
Following 5 days of facility acclimation, DIO mice were randomized into 8 groups of 10 based on body weight and blood glucose for assignment to treatment, as shown in Table 9:
All treatments were administered admixed in HFD (Research Diets, New Brunswick N.J.) and were provided ad libitum for 30 days. Drinking water for group 7 was supplemented with 1, 3 Butanediol at 3% concentration.
Body weight was recorded at baseline and twice weekly thereafter. Feed and water intakes were recorded each Monday, Wednesday, and Friday.
Blood samples (<3 μL) were obtained one hour post dose by tail clip at baseline and weekly thereafter for measurement of fed blood glucose by StatStrip. Additional anti-coagulated blood samples (100 μl, EDTA di-potassium salt) were obtained by tail clip one hour post-dose at baseline, day 14 and day 30. Anti-coagulated samples were quick frozen and stored on dry ice.
Animals were subjected to a 16 hour fast for performance of an oral glucose tolerance test (OGTT) on day 28. Blood samples were obtained via tail clip just prior to (8 am) and 15, 30, 60, 90, and 120 minutes post-glucose load (2.0 g/kg, PO) for assay of whole blood glucose (StatStrip). Feed was returned following last sample.
Animals were terminated on day 30-31 using CO2 inhalation and induction of pneumothorax. Terminal blood samples were obtained by cardiac puncture. Whole blood was processed to serum and analyzed for serum cholesterol, triglycerides, high density lipoprotein (HDL), low density lipoprotein (LDL) and non-esterified fatty acids (NEFA) using AU480 clinical analyzer.
Organ weights (liver, spleen, subcutaneous fat, inguinal fat, abdominal fat, and epididymal fat) were recorded. Sections of each fat were frozen or fixed in 4% paraformaldehyde/PBS, pH 6.9; Fat samples were placed on dry ice. Fixed liver samples (4% paraformaldehyde) were sent to Premier Laboratories for H&E staining and scoring for steatosis, inflammation and fibrosis. Spleen samples were prepared in ice cold 5% bovine serum albumin (BSA) in PBS or 4% paraformaldehyde. Sections of brain, heart, lung, and small and large intestine were fixed in 10% formalin.
All data are represented as group mean±SEM. Data were analyzed using JMP (SAS software). All normalizations were calculated using terminal body weight.
Baseline differences among groups were identified using Tukey-Kramer Hsd<0.05. Treatment effects compared to control were determined using Oneway ANOVA (*, p<0.05) followed by Dunnett's test where appropriate.

[3] = Homo sapiens, CD4+ T, 144 h, 100 uM, read-out: Treg induction % DMSO
[4] = Mus musculus, read-out: Free glycerol % DMSO
[5] = Mus musculus, 3T3-L1, 24 hours, read-out: Lipolysis Free Fatty Acids % DMSO

## C[C@@H](O)CC(=O)O [(R) BHB]
[1]; 2 mM
  Insulin Resistant % DMSO (glucose uptake): + (110%> ≤140%: +)
[1]; 20 mM
  Insulin Resistant % DMSO (glucose uptake): = (50%> ≤110%: =)
[2]; 2 mM
  Insulin Sensitive % DMSO (glucose uptake): ++ (140%≥ ≤200%: ++)
[2]; 20 mM
  Insulin Sensitive % DMSO (glucose uptake): ++ (140%≥ ≤200%: ++)

## C[C@@H](O)CC(=O)O [(R)-BHB]
[1]; insulin-resistant like state, compared to DMSO
  insulin-mediated glucose uptake: significantly enhanced insulin-mediated glucose uptake
[2]; insulin sensitive model, compared to DMSO
  insulin-mediated glucose uptake: significantly enhanced insulin-mediated glucose uptake

## O=C[C@H](O)[C@@H](O)[C@@H](O)CO [L-arabinose]
naïve CD4+ T cells; 0.5 mM
  Cell viability % DMSO: = (90%≥ ≤110%: =)
naïve CD4+ T cells; 1 mM
  Cell viability % DMSO: = (90%≥ ≤110%: =)
naïve CD4+ T cells; Homo sapiens, CD4+ T, 144 h, 0.5 mM, read-out: Treg induction % DMSO
  activity at 500 µM: 90 to 110%
naïve CD4+ T cells; Homo sapiens, CD4+ T, 144 h, 1 mM, read-out: Treg induction % DMSO
  activity at 1000 µM: 90 to 110%
Mouse myocyte; Mus musculus, 0.5 mM, read-out: Free glycerol % DMSO
  activity at 500 µM: 70 to 90%
Mouse myocyte; Mus musculus, 1 mM, read-out: Free glycerol % DMSO
  activity at 1000 µM: 70 to 90%
Mouse 3T3-L1 cells; Mus musculus, 3T3-L1, 0.5 mM, 24 hours, read-out: Lipolysis Free Fatty Acids % DMSO
  activity at 500 µM: 50 to 70%
Mouse 3T3-L1 cells; Mus musculus, 3T3-L1, 1 mM, 24 hours, read-out: Lipolysis Free Fatty Acids % DMSO
  activity at 1000 µM: 50 to 70%

## CC[C@H]1[C@@H](O)[C@@H]2[C@H](CC[C@]3(C)[C@@H]([C@H](C)CCC(=O)O)CC[C@@H]23)[C@@]2(C)CC[C@@H](O)C[C@@H]12 [Obeticholic acid, obeticholic acid]
naïve CD4+ T cells; 100 uM
  Cell viability % DMSO: = (90%≥ ≤110%: =)
naïve CD4+ T cells; [3]
  activity at 100 µM: 110 to 130%
Mouse myocyte; [4]
  activity at 100 µM: 90 to 100%
Mouse 3T3-L1 cells; [5]
  activity at 100 µM: 90 to 100%

## CCC(=O)O [Propionic acid]
naïve CD4+ T cells; 3 mM
  Cell viability % DMSO: = (90%≥ ≤110%: =)
Mouse myocyte; Mus musculus, 3 mM, read-out: Free glycerol % DMSO
  activity at 3000 µM: 50 to 70%
Mouse 3T3-L1 cells; Mus musculus, 3T3-L1, 3 mM, 24 hours, read-out: Lipolysis Free Fatty Acids % DMSO
  activity at 3000 µM: ≤ 50%

## CN(CCOc1ccc(CC2SC(=O)NC2=O)cc1)c1ccccn1 (centres unmarked) [Rosiglitazone, rosiglitazone, reference compound]
naïve CD4+ T cells; 10 uM
  Cell viability % DMSO: = (90%≥ ≤110%: =)
naïve CD4+ T cells; 100 uM
  Cell viability % DMSO: − (<90%: −)
naïve CD4+ T cells; Homo sapiens, CD4+ T, 144 h, 10 uM, read-out: Treg induction % DMSO
  activity at 10 µM: 90 to 110%
naïve CD4+ T cells; [3]
  activity at 100 µM: 90 to 110%
Male DIO mice
  Abdominal fat (% BW): *1.6 ± 0.1 % BW
  Blood glucose (fed) change compared to baseline: −22.8±3.7%
  Epididymal fat (% BW): 4.1 ± 0.2 % BW
  Inguinal fat (% BW): 0.78 ± 0.05 % BW
  Subcutaneous fat (% BW): *7.6 ± 0.5 % BW
Male DIO mice; 28 days, 16 hour fast
  Fasting blood glucose levels (time 0 from OGTT): 91.3 ± 2.5 mg/dL
Male DIO mice; 30 days
  change in body weight from baseline: 22.8±1.9%
Male DIO mice; terminal (fed) serum
  Cholesterol: *121.5 ± 7.3 mg/dL
  HDL: *60.5 ± 3.0 mg/dL
  LDL: 8.0 ± 0.5 mg/dL
  NEFA: *0.71 ± 0.04 mEq/L
  Triglycerides: 91.3 ± 4.8 mg/dL
Mouse myocyte; Mus musculus, 10 μM, read-out: Free glycerol % DMSO
  activity at 10 µM: 50 to 70%
Mouse myocyte; [4]
  activity at 100 µM: 50 to 70%
Mouse 3T3-L1 cells; [5]
  activity at 100 µM: ≤ 50%

## CC(O)CC(=O)[O-].[Na+] (centres unmarked) [Sodium BHB]
naïve CD4+ T cells; 2 mM
  Cell viability % DMSO: = (90%≥ ≤110%: =)
  Treg induction % DMSO: + (110%> ≤130%: +)
naïve CD4+ T cells; 20 mM
  Cell viability % DMSO: − (<90%: −)
  Treg induction % DMSO: = (90%≥ ≤110%: =)
Mouse myocyte; 0.2 mM
  Free glycerol % DMSO: ++ (50> <70%: ++)
Mouse myocyte; 2 mM
  Free glycerol % DMSO: ++ (50> <70%: ++)
Mouse 3T3-L1 cells; 0.2 mM, 24 hours
  Lipolysis Free Fatty Acids % DMSO: ++ (50> ≤70%: ++)
  Lipolysis Glycerol % change: + (70%> ≤90%: +)
Mouse 3T3-L1 cells; 0.2 mM, 24 hours post-treatment
  cell viability (CellTiter-Glo): 86 % of DMSO control
Mouse 3T3-L1 cells; 2 mM, 24 hours
  Lipolysis Free Fatty Acids % DMSO: ++ (50> ≤70%: ++)
  Lipolysis Glycerol % change: ++ (50> ≤70%: ++)
Mouse 3T3-L1 cells; 20 mM, 24 hours
  Lipolysis Free Fatty Acids % DMSO: + (70%> ≤90%: +)
  Lipolysis Glycerol % change: ++ (50> ≤70%: ++)

From patent US10953027B2, “Active agents and methods of their use for the treatment of metabolic disorders and nonalcoholic fatty liver disease” (Flagship Pioneering Innovations V, Inc., priority 2018, dated 2021)
